# From ChEMBL document CHEMBL1151066, “Inhibitors of MMP-1: an examination of P1 C gem-disubstitution in the N-carboxyalkylamine and glutaramide carboxylate series” (Bioorg Med Chem Lett, 1996)
# Target: T1, Interstitial collagenase (Homo sapiens, UniProt P03956)
# T1 sequence (P03956 whole entry): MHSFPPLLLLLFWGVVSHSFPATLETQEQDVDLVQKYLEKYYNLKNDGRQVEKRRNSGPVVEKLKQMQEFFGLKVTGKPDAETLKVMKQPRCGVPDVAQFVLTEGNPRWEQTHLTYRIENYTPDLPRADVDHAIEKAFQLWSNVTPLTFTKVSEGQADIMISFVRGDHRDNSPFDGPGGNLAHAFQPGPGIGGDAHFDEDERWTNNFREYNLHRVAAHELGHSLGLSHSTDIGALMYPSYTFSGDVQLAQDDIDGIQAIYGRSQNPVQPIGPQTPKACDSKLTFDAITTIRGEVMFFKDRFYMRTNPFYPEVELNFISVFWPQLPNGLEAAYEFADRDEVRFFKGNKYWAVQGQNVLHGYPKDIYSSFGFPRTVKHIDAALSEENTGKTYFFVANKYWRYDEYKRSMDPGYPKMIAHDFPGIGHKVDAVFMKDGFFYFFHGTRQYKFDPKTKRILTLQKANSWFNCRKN
# Assay: Inhibitory activity against Matrix Metallo Proteinase-1 (MMP-1)
row,IC50 [nM],Structure (SMILES)
1,3200,CNC(=O)[C@H](Cc1ccc(OC)cc1)NC(=O)C1(CC(CCN2C(=O)c3ccccc3C2=O)C(=O)O)CCCCC1 (mixture of isomers)
2,90,CNC(=O)[C@H](Cc1ccc(OC)cc1)NC(=O)C1(NC(CCN2C(=O)c3cc4ccccc4cc3C2=O)C(=O)O)CCCCC1 (stereo in doubt; form 2)
3,23,CNC(=O)[C@H](Cc1ccc(OC)cc1)NC(=O)[C@H](CC(C)C)N[C@H](CCN1C(=O)c2cc3ccccc3cc2C1=O)C(=O)O
4,> 30000,CCC(CC1(C(=O)N[C@@H](Cc2ccc(OC)cc2)C(=O)NC)CCCCC1)C(=O)O (mixture of isomers)
5,38,CNC(=O)[C@H](Cc1ccc(OC)cc1)NC(=O)C1(CC(CCN2C(=O)c3cc4ccccc4cc3C2=O)C(=O)O)CCCCC1 (stereo in doubt; form 1)
6,34,CNC(=O)[C@H](Cc1ccccc1)NC(=O)[C@H](CC(C)C)N[C@H](CCN1C(=O)c2cc3ccccc3cc2C1=O)C(=O)O
7,3000,O=C(O)C(CCN1C(=O)c2cc3ccccc3cc2C1=O)CC1(C(=O)NCc2ccccc2)CCCCC1 (racemic)
8,23,CNC(=O)[C@H](Cc1ccc(OC)cc1)NC(=O)[C@H](CC(C)C)C[C@@H](CCN1C(=O)c2cc3ccccc3cc2C1=O)C(=O)O
9,140,CCCOc1ccc2c(c1)C(=O)N(CCC(CC1(C(=O)N[C@@H](Cc3ccc(OC)cc3)C(=O)NC)CCCCC1)C(=O)O)C2=O (mixture of isomers)
10,940,CNC(=O)[C@H](Cc1ccc(OC)cc1)NC(=O)C1(CC(CCN2C(=O)c3cc4ccccc4cc3C2=O)C(=O)O)CCCC1 (stereo in doubt; form 1)
11,970,CNC(=O)[C@H](Cc1ccc(OC)cc1)NC(=O)C1(NC(CCN2C(=O)c3cc4ccccc4cc3C2=O)C(=O)O)CCCCC1 (stereo in doubt; form 1)
12,12000,O=C(O)C(CCN1C(=O)c2cc3ccccc3cc2C1=O)CC1(C(=O)NCCN2CCOCC2)CCCCC1 (racemic)
13,260,CNC(=O)[C@H](Cc1ccc(OC)cc1)NC(=O)C1(CC(CCN2C(=O)c3cc4ccccc4cc3C2=O)C(=O)O)CCCC1 (stereo in doubt; form 2)
14,570,CNC(=O)[C@H](Cc1ccc(OC)cc1)NC(=O)C1(CC(CCN2C(=O)c3ccc(OC)cc3C2=O)C(=O)O)CCCCC1 (mixture of isomers)
15,140,CNC(=O)[C@H](Cc1ccc(OC)cc1)NC(=O)C1(CC(CCN2C(=O)c3cc4ccccc4cc3C2=O)C(=O)O)CCCCC1 (stereo in doubt; form 2)
